Assay results published in patent US20190358220A1, “INTEGRATOR INHIBITORS AND METHODS FOR THEIR USE” (UNIVERSITY OF MIAMI, priority 2017, published 2019).

What was measured:
[1] = tested on: Integrator and RNAPII recruitment to EGF-responsive IEGs; test: ChIP-seq of INTS11 and RNAPII recruitment after EGF stimulation; type: cell-based, human
Method: Diagrams of EGR1, FOSB and NR4A1 genomic regions are indicated at the bottom. FIGS. 5B and 5C show the average profiles of INTS11 (top) and RNAPII (bottom) recruitment at 106 EGF-induced genes (FIG. 5B) and 106 control genes (FIG. 5C). ChIP-seq was performed before and after 20 minutes of EGF-induction, with or without the presence of ERK inhibitor. The average analysis was performed using two independent biological replicates.
ChIP-seq for INTS11 and RNAPII was performed before and after treatment of cells with ERK1/2 inhibitor (SCH772984). […] This was manifested by decreased occupancy of Integrator and RNAPII at the 5′-end and body of EGF-responsive genes (FIGS. 5A-5C). […]
ChIP-seq data analysis was performed as previously described. […] In brief, FASTQ data were processed with Trimmomatic to remove low-quality reads and then aligned to the human genome hg19 using bowtie2. […] In brief, RNAPII ChIP-seq density at the TSS (−30 bp to +300 bp) was divided by the read density over the rest of the gene body, plus an additional 1 kb beyond the transcription end site (TES). The log10(ratio) of genes (EGF, control and ERK inhibitor treatment) were calculated using all different isoforms available in the Hg19 RefSeq Annotation Table that were considered express (FPKM >1 in EGF treatment conditions) in our analysis.

RSK1 phosphorylation = test: Immunoblot of downstream MAPK target phosphorylation in HeLa cells; type: cell-based, human; conditions: SCH772984 1 μM for 3 hours
Method: FIG. 4A is an immunoblot of HeLa cells that were transduced with doxycycline-inducible shRNAs targeting INTS11 and treated with ERK inhibitor (SCH772984, 1 μM) for 3 hours.
Integrator depletion abrogates EGF transcriptional responsiveness in HeLa cells. See Gardini, A. et al Molecular Cell 56, 128-139 (2014). To dissect the signaling pathway that mediates the EGF transcriptional response of immediate early genes (IEGs), HeLa cells were treated with an ERK1/2 inhibitor (SCH772984) prior to EGF stimulation and analyzed EGF responsive gene expression using Chromatin RNA-sequencing (ChromRNA-seq), which provides for an enriched fraction of nascent RNAs. There were 106 genes that consistently respond (2-fold induction) to EGF stimulation at the 20-minute time point.
Antibodies used for CHIP and immunoblot include: INTS11 (A301-274A, Bethyl Laboratories, Inc., Montgomery, Tex.), RNAPII (sc-899, Santa Cruz Biotechnology, Paso Robles, Calif.), GAPDH (sc-25778, Santa Cruz), phospo-ERK1/2 (#9101, Cell Signaling technology), ERK1/2 (#9102, Cell Signaling technology), Phospho-p90RSK (Thr359) (#8753, Cell Signaling technology), and RSK1 (#9333, Cell Signaling technology). Flag M2-conjugated beads (Sigma, 2220) were used for immunoprecipitation.

[2] = tested on: ovarian cancer cell lines (A2780, OVCAR10, PEO1, PEO4); test: Viability assay (PrestoBlue), ovarian cancer cells; type: cell-based
Method: Cell viability was determined by Prestoblue and presented as percent of vehicle. Three independent biological replicates were used to calculate the average. Two-sided t-test, **P<0.01 for corresponding comparisons.
Therefore, ovarian cancer cells were used to assess the effectiveness of targeting Integrator in cancers without activating mutations in the MAPK pathway. Phendione was compared with the conventional chemotherapeutic drug, cisplatin, a DNA crosslinking agent, which is frequently used in the treatment of the ovarian cancer. The effectiveness of INTS11 depletion in reducing the proliferation of PEO4 ovarian cancer cells was first measured (FIGS. 11, 12A, and 12B). Next, four ovarian cancer cell lines were treated with phendione or cisplatin.
(§1) The cells were plated 5000 per well in 96-well black plates with a clear bottom and maintained under normal conditions over night before the drug treatment. The cell viability was measured 4 days after treatment using PrestoBlue (Invitrogen cat No A13261). GraphPad Prism software was used to generate dose response curves and calculate IC50 values. Each experiment was repeated at least three times.

[3] = tested on: lung cancer cell lines (NCI-H1975, NCI-H2444, NCI-H1650) and melanoma cell lines (SK-MEL28 and A375); test: Viability assay (PrestoBlue), MAPK-driven cancer cell lines; type: cell-based; conditions: all MAPK-driven cancer cell lines, 96 hours treatment
Method: Cell viability was determined by Prestoblue and presented as percent of vehicle. Three independent biological replicates were used to calculate the average. […] Two-sided t-test, **P<0.01 for corresponding comparisons.
The NCI-H1650 lung cancer cell line containing heterozygous deletion in EGFR (delE746-A750) was treated with two different siRNAs to INTS11, or control non-targeting siRNAs, and cellular proliferation was measured using 5-ethynyl-2′-deoxyuridine (EdU), a sensitive and quantitative measure of cellular growth. […] SK-MEL28 also contains a homozygous EGFR mutation (P753S).
as §1

Compound: O=C(Nc1ccc2[nH]nc(-c3ccncc3)c2c1)[C@@H]1CCN(CC(=O)N2CCN(c3ccc(-c4ncccn4)cc3)CC2)C1 [SCH772984]
- recruitment of Integrator and RNAPII to EGF-responsive IEGs ([1]; before and after 20 minutes of EGF induction): diminished the immediate-early recruitment of Integrator and RNAPII
- transcriptional elongation (RNAPII traveling ratio) ([1]; following EGF induction): substantially decreased transcriptional elongation
- phosphorylation of RSK1 (RSK1 phosphorylation): abrogation of downstream MAPK-mediated target phosphorylation of RSK1

Compound: O=C1C(=O)c2cccnc2-c2ncccc21 [phendione, 1,10-phenanthroline-5,6-dione]
- responsiveness of cisplatin-resistant ovarian cancer cells ([2]; A2780 and OVCAR10, known resistance to cisplatin): sensitive to phendione
- sensitivity of cellular viability ([2]; all four ovarian cancer lines, 96 hours treatment): exquisite sensitivity
- IC50 of viability compared with MAPK pathway inhibitors [3]: IC50s less than or equal to that of MAPK pathway inhibitors
